In brackets after ≈: the same amount, converted by molar mass.
Key:
[1] = target: T1, Quinolone resistance protein NorA (Staphylococcus aureus) (UniProt P0A0J7); settings: SA-1199B, at 50 µM
T1 sequence (whole entry): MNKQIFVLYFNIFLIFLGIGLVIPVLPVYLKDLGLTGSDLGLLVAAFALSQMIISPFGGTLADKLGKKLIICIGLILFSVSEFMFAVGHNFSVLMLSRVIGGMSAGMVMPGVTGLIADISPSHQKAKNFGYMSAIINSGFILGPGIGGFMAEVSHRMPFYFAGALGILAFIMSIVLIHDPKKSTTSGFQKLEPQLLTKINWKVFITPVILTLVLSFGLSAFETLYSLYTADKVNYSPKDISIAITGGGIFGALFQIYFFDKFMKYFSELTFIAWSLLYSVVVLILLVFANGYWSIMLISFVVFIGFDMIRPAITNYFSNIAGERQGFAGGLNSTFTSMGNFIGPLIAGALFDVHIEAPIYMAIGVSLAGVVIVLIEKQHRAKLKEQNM
Description: Inhibition of norA-mediated ethidium bromide efflux in Staphylococcus aureus SA-1199B harboring grlA A116E mutant at 50 uM after 5 mins by fluorometric analysis

[2] = target: T2, MDR1 (P-glycoprotein, ABCB1) (Homo sapiens, UniProt P08183); assay: in vitro
Description: Inhibition of human recombinant MDR1 expressed in mouse L5178Y cells assessed as inhibition of rhodamine-123 efflux at 10^-4 M preincubated for 10 mins measured after 20 mins by FACS analysis

[3] = test system: Staphylococcus aureus; assay: microbe, parasite or virus in culture; assay type: functional; settings: SA-1199B
Description: Antibacterial activity against Staphylococcus aureus SA-1199B harboring grlA A116E mutant by microdilution techniques

[4] = target: T2, MDR1 (P-glycoprotein, ABCB1); assay: Inhibition of human recombinant MDR1 expressed in mouse L5178Y cells assessed as inhibition of rhodamine-123 efflux at 10^-5 M preincubated for 10 mins measured after 20 mins by FACS analysis; assay type: cell-based; settings: mouse L5178Y cells expressing human recombinant MDR1, probe rhodamine-123
[5] = mouse L5178Y cells expressing human recombinant MDR1, probe rhodamine-123

Row | Structure (SMILES) | inhibition [1] [%] | inhibition at 20 min, 100 µM [2, 5] [%] | other results
1 | CCOc1cc(CC(=O)N[C@@H](CC(C)C)c2ccccc2N2CCCCC2)ccc1C(=O)O [REPAGLINIDE] | 14 | 35 | –
2 | O=C1NC(=O)/C(=C/c2ccc(-c3cc(C(=O)O)ccc3Cl)o2)S1 | – | 2.6 | –
3 | C=C[C@H]1CN2CC[C@H]1C[C@@H]2[C@@H](O)c1ccnc2ccc(OC)cc12 | 31.5 | – | –
4 | COc1ccc(CCN2CCC(Nc3nc4ccccc4n3Cc3ccc(F)cc3)CC2)cc1 [ASTEMIZOLE] | 80.6 | – | MIC [3]: 100 µg/mL (≈ 218 µM); inhibition at 20 min, 10 µM [4]: 12.8%
5 | CCOC(=O)C1=C(COCCN)NC(C)=C(C(=O)OC)C1c1ccccc1Cl (configuration not stated) [AMLODIPINE] | 60.6 | – | inhibition at 20 min, 10 µM [4]: 52.8%
6 | c1ccc(CCN(Cc2ccccc2)Cc2cccc(OCc3ccccc3)c2)cc1 | – | 2.2 | –
7 | C=C[C@H]1C[N@@]2CC[C@H]1C[C@@H]2[C@@H](O)c1ccnc2ccc(OC)cc12 [QUINIDINE] | – | – | inhibition at 20 min, 100 µM ([2]; l5178y): 21.1%
8 | Cc1ccc(S(=O)(=O)Nc2ccc3c(c2)ncn3-c2ccccc2)cc1 | – | 2.3 | –
9 | O=C1CCc2ccc(OCCCCN3CCN(c4cccc(Cl)c4Cl)CC3)cc2N1 [ARIPIPRAZOLE] | 92.3 | 99 | MIC [3]: > 100 µg/mL
10 | CN(C)CCOc1ccc(-c2cc(=O)c3ccccc3n2C)cc1 | – | 3.2 | –
11 | N#Cc1c(C(F)(F)F)cc(Cc2ccccc2)nc1SCc1ccc(C(=O)O)cc1 | – | 2.6 | –
12 | CCOC(=O)c1cn(C2CC2)c2cc(N3CCC4=C(C3)/C(=N/O)C(C)CS4)c(N)cc2c1=O (configuration not stated) | – | 40.6 | –
13 | O=C1Cc2cc(CCN3CCN(c4nsc5ccccc45)CC3)c(Cl)cc2N1 [ZIPRASIDONE] | 86.6 | 19 | MIC [3]: > 100 µg/mL
14 | CCC(C)N1C(=O)S/C(=C\c2ccc(N3CCCC3)o2)C1=O (configuration not stated) | – | 11.3 | –
15 | N#Cc1c(SCc2ccc(Cl)nc2)nc2c(c1C(F)(F)F)CCCC2 | – | 20.4 | –
16 | C=CCc1ccccc1OCC(O)CNC(C)C (configuration not stated) [ALPRENOLOL] | – | 5 | –
17 | C[C@@H](NCc1cccc(OCc2ccccc2)c1)[C@@H](O)c1ccccc1 | – | – | inhibition at 20 min, 10 µM [4]: 7.8%

Row | Structure (SMILES) | inhibition [1] [%] | inhibition at 20 min, 100 µM [2, 5] [%] | other results
18 | CCN(CC)CCCN(c1ccccc1)C1Cc2ccccc2C1 [APRINDINE] | 51.6 | 16 | –
19 | Cc1ccc(S(=O)(=O)Nc2ccc3nc(-c4cccn4C)[nH]c3c2)cc1 | – | 4.3 | –
20 | CCOC(=O)c1cn(C2CC2)c2cc(N3CCC4=C(C3)/C(=N/OC)C(C)CS4)c(N)cc2c1=O (configuration not stated) | – | 16.8 | –
21 | COc1cccc(CNC(C)C(O)c2ccccc2)c1 (configuration not stated) | – | 2.1 | –
22 | CC[C@H](C)N1C(=O)S/C(=C/c2ccc(-c3cc(C(=O)O)ccc3Cl)o2)C1=O | – | – | inhibition at 20 min, 10 µM [4]: 0.7%
23 | COc1cc(C2=Nc3ccccc3SC2)cc(OC)c1OC | – | 64.7 | –
24 | CN(C)C(=O)C(CCN1CCC(O)(c2ccc(Cl)cc2)CC1)(c1ccccc1)c1ccccc1 [LOPERAMIDE] | 77.7 | – | MIC [3]: > 100 µg/mL; inhibition at 20 min, 10 µM [4]: 4.5%
25 | COc1ccc(C2=Nc3ccccc3SC2)cc1OC | – | 44.1 | –
26 | CCC(C)N1C(=O)S/C(=C\c2ccc(-c3cc(C(=O)O)ccc3Cl)o2)C1=O (configuration not stated) | – | – | inhibition at 20 min, 10 µM [4]: 1.7%
27 | Cc1ccc(S(=O)(=O)Nc2ccc3c(c2)nc(C)n3Cc2ccccc2)cc1 | – | 21.7 | –
28 | CC[C@H]1CCc2nc(SCc3ccc(C(=O)O)cc3)c(C#N)c(C(F)(F)F)c2C1 | – | – | inhibition at 20 min, 10 µM [4]: 0.6%
29 | Cn1cccc1-c1nc2cc(NC(=O)c3ccccc3)ccc2[nH]1 | – | 1.6 | –
30 | CC(C)(C)c1ccc(C(=O)CCCN2CCC(OC(c3ccccc3)c3ccccc3)CC2)cc1 [EBASTINE] | 88.3 | – | MIC [3]: > 100 µg/mL
31 | O=C1NCCN1CCN1CCC(c2cn(-c3ccc(F)cc3)c3ccc(Cl)cc23)CC1 [SERTINDOLE] | 81.8 | 74 | MIC [3]: 25 µg/mL (≈ 56.7 µM)
32 | CCCOc1ccc(-c2cc(=O)c3ccccc3n2C)cc1 | – | 1.9 | –
33 | CCN(CC)CCOc1ccc(-c2cc(=O)c3ccccc3n2C)cc1 | – | – | inhibition at 20 min, 10 µM [4]: 2.6%
